Data from patent US8470766B2, “Protein kinase C therapy for the treatment of acute lung injury” (The Children's Hospital of Philadelphia, priority 2006, dated 2013).

Tested on: neutrophils
Assay: TNF suppression of neutrophil apoptosis, kinase inhibitor pretreatment (initial studies)
Type: cell-based
Details: pretreatment with kinase inhibitor
From the text: δ-PKC has been identified as an important regulator of cytokine mediated anti-apoptotic and pro-inflammatory signaling in adherent neutrophils (Kilpatrick, L. E., et al. (2002) Am J Physiol Cell Physiol 283, C48-57; Kilpatrick, L. E., et al. (2004) Am J Physiol Cell Physiol 287, C633-42; Kilpatrick, L. E., et al. (2006) J Leukoc Biol. 80:1512-1521; Kilpatrick, L. E., et al. (2000) Am J Physiol Cell Physiol 279, C2011-8). Neutrophils undergo spontaneous apoptosis which can be suppressed in vitro by culturing cells in the presence of cytokines such as TNF (Kilpatrick, L. E., et al. (2002) Am J Physiol Cell Physiol 283, C48-57; Kilpatrick, L. E., et al. (2006) J Leukoc Biol. 80:1512-1521). […] Activation of caspases is one of the earliest markers of apoptosis occurring upstream of DNA fragmentation and PS externalization. Caspase 3 plays a critical role in spontaneous neutrophil apoptosis (Kilpatrick, L. E., et al. (2002) Am J Physiol Cell Physiol 283, C48-57; Daigle, I., Simon, H. U. (2001) Int Arch Allergy Immunol 126, 147-56; Scheel-Toellner, D., et al. (2004) Blood 104, 2557-64). […] However, recent reports have raised issues about the specificity of rottlerin as a δ-PKC inhibitor (Davies, S. P., et al. (2000) Biochem J 351, 95-105). To establish a role specifically for δ-PKC in the TNF-mediated anti-apoptotic signaling, a more specific inhibitor is required. […]

CC(=O)c1c(O)c(C)c(O)c(Cc2c(O)c3c(c(C(=O)/C=C/c4ccccc4)c2O)OC(C)(C)C=C3)c1O [rottlerin]
suppression of neutrophil apoptosis by TNF: inhibited
